Measured values taken from paper PMC6028563, “Probing Substituents in the 1- and 3-Position: Tetrahydropyrazino-Annelated Water-Soluble Xanthine Derivatives as Multi-Target Drugs With Potent Adenosine Receptor Antagonistic Activity” (Frontiers in Chemistry, 2018).

Columns and labels:
human A2A AR = biological target: T1, human A2A AR (Homo sapiens, UniProt P29274); assay: Radioligand binding assay at human A2A AR vs. [^3H]MSX-2; conditions: CHO cell membranes, n = 3, read-out: Ki ± SEM, A2A vs. [^3H]MSX-2
T1 construct: expressed in transfected cells; host or cells: CHO cells
In short: (§1)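 Competition binding; rat A1: brain cortex membranes; rat A2A: brain striatum membranes; human A1/A2A/A2B/A3: membranes from CHO cells each expressing one human subtype. Affinity only, no functional testing.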

human A2B AR = biological target: T2, human A2B AR (Homo sapiens, UniProt P29275); assay: Radioligand binding assay at human A2B AR vs. [^3H]PSB-603; conditions: for Ki: CHO cell membranes, n = 2 (n = 3 where marked a), read-out: Ki ± SEM, A2B vs. [^3H]PSB-603; for inhibition at 1 µM: at 1,000 nM
T2 construct: expressed in transfected cells; host or cells: CHO cells
T2 sequence (P29275 1-332): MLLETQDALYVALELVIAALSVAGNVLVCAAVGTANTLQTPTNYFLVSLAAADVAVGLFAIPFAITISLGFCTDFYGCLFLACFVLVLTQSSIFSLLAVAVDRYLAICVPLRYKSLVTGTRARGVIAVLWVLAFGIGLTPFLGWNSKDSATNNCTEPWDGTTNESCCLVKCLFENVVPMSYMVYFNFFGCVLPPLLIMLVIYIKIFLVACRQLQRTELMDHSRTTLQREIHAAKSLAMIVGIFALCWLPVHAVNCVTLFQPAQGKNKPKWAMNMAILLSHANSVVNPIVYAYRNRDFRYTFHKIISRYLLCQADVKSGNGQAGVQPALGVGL
In short: as §1

recombinant human MAO-A = biological target: T3, recombinant human MAO-A (Homo sapiens, UniProt P21397); assay: Monoamine oxidase assay (Amplex Red), MAO-A; type: biochemical; conditions: for inhibition at 10 µM: at 10,000 nM, read-out: % inhibition at indicated concentration, Human MAO-A; for IC50: n = 3, read-out: IC50 ± SEM, Human MAO-A
T3 construct: purchased Sigma-Aldrich M7316; host or cells: baculovirus-infected insect cells
T3 sequence (P21397 1-527): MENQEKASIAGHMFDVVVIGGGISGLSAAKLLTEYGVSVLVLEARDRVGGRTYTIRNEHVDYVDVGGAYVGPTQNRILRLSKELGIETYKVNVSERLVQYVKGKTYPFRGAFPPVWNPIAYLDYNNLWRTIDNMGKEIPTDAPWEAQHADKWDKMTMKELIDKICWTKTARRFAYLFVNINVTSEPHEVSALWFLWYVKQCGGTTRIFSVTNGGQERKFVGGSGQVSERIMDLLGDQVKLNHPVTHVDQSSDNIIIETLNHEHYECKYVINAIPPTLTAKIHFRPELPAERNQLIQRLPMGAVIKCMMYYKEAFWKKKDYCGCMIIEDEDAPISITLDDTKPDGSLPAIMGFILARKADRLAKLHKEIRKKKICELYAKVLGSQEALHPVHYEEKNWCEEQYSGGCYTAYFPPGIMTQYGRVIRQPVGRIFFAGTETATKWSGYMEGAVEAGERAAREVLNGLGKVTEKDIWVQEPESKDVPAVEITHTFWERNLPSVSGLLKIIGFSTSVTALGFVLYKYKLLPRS
In short: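 Inhibition was measured with an Amplex Red monoamine oxidase assay, using human MAO-A and MAO-B produced recombinantly in baculovirus-infected insect cells. For rat MAO-B, liver mitochondria-enriched fractions from male Sprague Dawley rats served as enzyme source.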

[1] = read-out: % inhibition of radioligand binding at indicated concentration, A2B vs. [^3H]PSB-603

T1 sequence (P29274 whole entry): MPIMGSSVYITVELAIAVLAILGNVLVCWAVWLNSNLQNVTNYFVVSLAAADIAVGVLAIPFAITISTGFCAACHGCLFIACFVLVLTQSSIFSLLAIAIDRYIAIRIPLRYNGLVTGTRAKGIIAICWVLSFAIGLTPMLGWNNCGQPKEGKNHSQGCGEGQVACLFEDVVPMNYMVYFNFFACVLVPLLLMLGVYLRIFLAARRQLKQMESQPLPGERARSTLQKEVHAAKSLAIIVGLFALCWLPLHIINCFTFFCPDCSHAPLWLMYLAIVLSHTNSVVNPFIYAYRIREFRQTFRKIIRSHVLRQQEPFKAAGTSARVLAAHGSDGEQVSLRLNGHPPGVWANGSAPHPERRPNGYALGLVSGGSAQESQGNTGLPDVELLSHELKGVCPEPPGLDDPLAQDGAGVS

Structure (SMILES)	Ki (human A2A AR) [nM]	Ki (human A2B AR) [nM]	inhibition at 1 µM (human A2B AR; [1]) [%]	inhibition at 10 µM (recombinant human MAO-A) [%]	IC50 (recombinant human MAO-A) [nM]	inhibition at 0.1 µM (human A2B AR; at 100 nM, read-out: % inhibition of radioligand binding at indicated concentration, A2B vs. [^3H]PSB-603) [%]
CCn1c(=O)c2c(nc3n2CCN(Cc2cc(C(F)(F)F)ccc2F)C3)n(CC)c1=O [Compound 15j, 1,3-diethyl-8-(2-fluoro-5-(trifluoromethyl)benzyl)-6,7,8,9-tetrahydropyrazino[2,1-f]purine-2,4(1H,3H)-dione]	781 ± 68	> 1000	27	7	> 10000	
CCn1c(=O)c2c(nc3n2CCN(Cc2cc(C(F)(F)F)ccc2Cl)C3)n(C)c1=O [Compound 14m, 8-(2-chloro-5-(trifluoromethyl)benzyl)-3-ethyl-1-methyl-6,7,8,9-tetrahydropyrazino[2,1-f]purine-2,4(1H,3H)-dione]	881 ± 96	> 1000	3	9	> 10000	
CCn1c(=O)n(C)c(=O)c2c1nc1n2CCN(Cc2cc(Cl)cc(Cl)c2)C1 [Compound 16b, 8-(3,5-dichlorobenzyl)-1-ethyl-3-methyl-6,7,8,9-tetrahydropyrazino[2,1-f]purine-2,4(1H,3H)-dione]	2230	> 1000	5	8	> 10000	
CCn1c(=O)c2c(nc3n2CCN(Cc2cc(Cl)ccc2Cl)C3)n(C)c1=O [Compound 14j, 8-(2,5-dichlorobenzyl)-3-ethyl-1-dimethyl-6,7,8,9-tetrahydropyrazino[2,1-f]purine-2,4(1H,3H)-dione]	906 ± 73	> 1000	2	23	> 10000	
CCn1c(=O)c2c(nc3n2CCN(Cc2cc(Br)ccc2F)C3)n(CC)c1=O [Compound 15l, 8-(5-bromo-2-fluorobenzyl)-1,3-diethyl-6,7,8,9-tetrahydropyrazino[2,1-f]purine-2,4(1H,3H)-dione]	598 ± 92	> 1000	24	8	> 10000	

Second part, the compound after the results:

Ki (human A2A AR) [nM]	Ki (human A2B AR) [nM]	inhibition at 1 µM (human A2B AR; [1]) [%]	inhibition at 10 µM (recombinant human MAO-A) [%]	IC50 (recombinant human MAO-A) [nM]	inhibition at 0.1 µM (human A2B AR; at 100 nM, read-out: % inhibition of radioligand binding at indicated concentration, A2B vs. [^3H]PSB-603) [%]	Structure (SMILES)
2020	> 1000	8	8	> 10000		CCn1c(=O)c2c(nc3n2CCN(Cc2cccc(C(F)(F)F)c2F)C3)n(C)c1=O [Compound 14l, 3-ethyl-8-(2-fluoro-3-(trifluoromethyl)benzyl)-1-methyl-6,7,8,9-tetrahydropyrazino[2,1-f]purine-2,4(1H,3H)-dione]
756 ± 271	> 1000	34	-10	> 10000		CCn1c(=O)c2c(nc3n2CCN(Cc2ccc(F)c(Br)c2)C3)n(CC)c1=O [Compound 15k, 8-(3-bromo-4-fluorobenzyl)-1,3-diethyl-6,7,8,9-tetrahydropyrazino[2,1-f]purine-2,4(1H,3H)-dione]
1580	> 1000	23	12	> 10000		C#CCn1c(=O)c2c(nc3n2CCN(Cc2ccc(Cl)c(Cl)c2)C3)n(C)c1=O [Compound 19a, 8-(3,4-dichlorobenzyl)-1-methyl-3-propargyl-6,7,8,9-tetrahydropyrazino[2,1-f]purine-2,4(1H,3H)-dione]
1620	> 1000	5	6	> 10000		CCn1c(=O)n(C)c(=O)c2c1nc1n2CCN(Cc2ccc(Cl)c(Cl)c2)C1 [Compound 16a, 8-(3,4-dichlorobenzyl)-1-ethyl-3-methyl-6,7,8,9-tetrahydropyrazino[2,1-f]purine-2,4(1H,3H)-dione]
	> 100		7	> 10000	2	Cn1c(=O)c2c(nc3n2CCN(Cc2ccc(Cl)c(Cl)c2)C3)n(C2CC2)c1=O [Compound 17, 8-(3,4-dichlorobenzyl)-1-cyclopropyl-3-methyl-6,7,8,9-tetrahydropyrazino[2,1-f]purine-2,4(1H,3H)-dione]
